A short description of the series: activity coefficient (dimensionless); of the first substance listed, at infinite dilution; xn = mol fraction of the nth substance listed. The conditions noted are these: Liquid, Chromatography, x1 = 0.

Where “and” joins values, the source holds several entries; their conditions need not be identical. Identical values can stand only once. Numbers after ± are expanded uncertainties.

As for `CCO` [ethanol] + CCCCCCCC[N+](C)(CCCCCCCC)CCCCCCCC.O=S(=O)([N-]S(=O)(=O)C(F)(F)F)C(F)(F)F, the activity coefficient is, setting by setting: (303.15 K) 0.94 and 0.95; (313.15 K) 0.85 and 0.87; (323.15 K) 0.8 and 0.83.
Consider `C=CCCCCCC` [oct-1-ene] + CCCCCCCC[N+](C)(CCCCCCCC)CCCCCCCC.O=S(=O)([N-]S(=O)(=O)C(F)(F)F)C(F)(F)F, for which the activity coefficient by setting is: (303.15 K) 1.69 ± 0.07; (313.15 K) 1.65 and 1.67; (323.15 K) 1.64 and 1.66.
`Cc1ccccc1` [toluene] + CCCCCCCC[N+](C)(CCCCCCCC)CCCCCCCC.O=S(=O)([N-]S(=O)(=O)C(F)(F)F)C(F)(F)F: the activity coefficient by setting is: (303.15 K) 0.51 ± 0.03; (313.15 K) 0.52 ± 0.03; (323.15 K) 0.55 and 0.53.
As for `C#CCCCC` [1-hexyne] + CCCCCCCC[N+](C)(CCCCCCCC)CCCCCCCC.O=S(=O)([N-]S(=O)(=O)C(F)(F)F)C(F)(F)F, the activity coefficient reads like this: (303.15 K) 0.59 ± 0.03; (313.15 K) 0.59 ± 0.03; (323.15 K) 0.6 and 0.62.
For `CCCCCCCC` [octane] + CCCCCCCC[N+](C)(CCCCCCCC)CCCCCCCC.O=S(=O)([N-]S(=O)(=O)C(F)(F)F)C(F)(F)F, the activity coefficient (303.15 K) was 1.52 and 1.54; the activity coefficient (313.15 K) is 1.46 and 1.49; the activity coefficient (323.15 K) was 1.44 and 1.43.
As to `C=CCCCCCCC` [1-nonene] + CCCCCCCC[N+](C)(CCCCCCCC)CCCCCCCC.O=S(=O)([N-]S(=O)(=O)C(F)(F)F)C(F)(F)F, the activity coefficient is 1.99 ± 0.09 (303.15 K); 1.87 and 1.91 (313.15 K); 1.81 and 1.85 (323.15 K).
Consider `CCCO` [propan-1-ol] + CCCCCCCC[N+](C)(CCCCCCCC)CCCCCCCC.O=S(=O)([N-]S(=O)(=O)C(F)(F)F)C(F)(F)F, for which the activity coefficient was 1.37 and 1.35 (303.15 K); 1.24 and 1.22 (313.15 K); 1.13 and 1.15 (323.15 K).
As for `C=CCCCCCCCC` [1-decene] + CCCCCCCC[N+](C)(CCCCCCCC)CCCCCCCC.O=S(=O)([N-]S(=O)(=O)C(F)(F)F)C(F)(F)F, the activity coefficient is 2.26 and 2.22 (303.15 K); 2.13 and 2.11 (313.15 K); 2.07 and 2.05 (323.15 K).
Turning to `CCCCCCCCC` [nonane] + CCCCCCCC[N+](C)(CCCCCCCC)CCCCCCCC.O=S(=O)([N-]S(=O)(=O)C(F)(F)F)C(F)(F)F, the activity coefficient was 2.57 and 2.59 (303.15 K); 2.39 ± 0.11 (313.15 K); 2.21 ± 0.1 (323.15 K).
In the case of `CCC(C)=O` [butanone] + CCCCCCCC[N+](C)(CCCCCCCC)CCCCCCCC.O=S(=O)([N-]S(=O)(=O)C(F)(F)F)C(F)(F)F, the activity coefficient runs as follows: (303.15 K) 0.32 and 0.34; (313.15 K) 0.31 and 0.33; (323.15 K) 0.29 and 0.31.
On to `C1CCCCCC1` [cycloheptane] + CCCCCCCC[N+](C)(CCCCCCCC)CCCCCCCC.O=S(=O)([N-]S(=O)(=O)C(F)(F)F)C(F)(F)F, for which the activity coefficient was 0.95 and 0.94 (303.15 K); 0.9 and 0.91 (313.15 K); 0.89 and 0.88 (323.15 K).
Consider `CCCCCC` [hexane] + CCCCCCCC[N+](C)(CCCCCCCC)CCCCCCCC.O=S(=O)([N-]S(=O)(=O)C(F)(F)F)C(F)(F)F, for which the activity coefficient by setting is: (303.15 K) 1.13 ± 0.03; (313.15 K) 1.11 and 1.12; (323.15 K) 1.11 and 1.1.
Consider `C#CCCC` [1-pentyne] + CCCCCCCC[N+](C)(CCCCCCCC)CCCCCCCC.O=S(=O)([N-]S(=O)(=O)C(F)(F)F)C(F)(F)F, for which the activity coefficient is 0.53 and 0.52 (303.15 K); 0.52 and 0.53 (313.15 K); 0.54 and 0.55 (323.15 K).
Take `C#CCCCCCCCC` [1-decyne] + CCCCCCCC[N+](C)(CCCCCCCC)CCCCCCCC.O=S(=O)([N-]S(=O)(=O)C(F)(F)F)C(F)(F)F: the activity coefficient is 1.3 ± 0.04 (303.15 K); 1.33 and 1.31 (313.15 K); 1.32 and 1.34 (323.15 K).
Take `C1CCCCCCCC1` [cyclononane] + CCCCCCCC[N+](C)(CCCCCCCC)CCCCCCCC.O=S(=O)([N-]S(=O)(=O)C(F)(F)F)C(F)(F)F: the activity coefficient reads like this: (303.15 K) 1.76 and 1.74; (313.15 K) 1.68 ± 0.07; (323.15 K) 1.63 and 1.61.
With `C=CCCC` [1-pentene] + CCCCCCCC[N+](C)(CCCCCCCC)CCCCCCCC.O=S(=O)([N-]S(=O)(=O)C(F)(F)F)C(F)(F)F, the activity coefficient by setting is: (303.15 K) 0.78 ± 0.03; (313.15 K) 0.76 and 0.74; (323.15 K) 0.76 and 0.78.
As for `C#CCCCCCCC` [1-nonyne] + CCCCCCCC[N+](C)(CCCCCCCC)CCCCCCCC.O=S(=O)([N-]S(=O)(=O)C(F)(F)F)C(F)(F)F, the activity coefficient by setting is: (303.15 K) 1.15 ± 0.04; (313.15 K) 1.15 and 1.17; (323.15 K) 1.18 ± 0.04.
For the compound `CCCCC` [pentane] + CCCCCCCC[N+](C)(CCCCCCCC)CCCCCCCC.O=S(=O)([N-]S(=O)(=O)C(F)(F)F)C(F)(F)F, the activity coefficient (303.15 K) is 1.01 and 1; the activity coefficient (313.15 K) turned out to be 0.99 ± 0.11; the activity coefficient (323.15 K) is 1 and 0.98.
In the case of `C1CCCCC1` [cyclohexane] + CCCCCCCC[N+](C)(CCCCCCCC)CCCCCCCC.O=S(=O)([N-]S(=O)(=O)C(F)(F)F)C(F)(F)F, the activity coefficient (303.15 K) is 0.84 ± 0.03; the activity coefficient (313.15 K) was 0.8 and 0.81; the activity coefficient (323.15 K) was 0.8 and 0.79.
For the compound `C1CCCCCCC1` [cyclooctane] + CCCCCCCC[N+](C)(CCCCCCCC)CCCCCCCC.O=S(=O)([N-]S(=O)(=O)C(F)(F)F)C(F)(F)F, the activity coefficient is, setting by setting: (303.15 K) 1.08 and 1.07; (313.15 K) 1.01 and 1.03; (323.15 K) 0.99 and 1.03.
Consider `c1ccccc1` [benzene] + CCCCCCCC[N+](C)(CCCCCCCC)CCCCCCCC.O=S(=O)([N-]S(=O)(=O)C(F)(F)F)C(F)(F)F, for which the activity coefficient (303.15 K) is 0.32 and 0.31; the activity coefficient (313.15 K) amounted to 0.31 ± 0.04; the activity coefficient (323.15 K) was 0.31 and 0.32.
As to `CCCCCCCCCC` [decane] + CCCCCCCC[N+](C)(CCCCCCCC)CCCCCCCC.O=S(=O)([N-]S(=O)(=O)C(F)(F)F)C(F)(F)F, the activity coefficient (303.15 K) is 3.2 and 3; the activity coefficient (313.15 K) is 2.74 and 2.72; the activity coefficient (323.15 K) came to 2.5 ± 0.11.
As for `CCCCCCC` [heptane] + CCCCCCCC[N+](C)(CCCCCCCC)CCCCCCCC.O=S(=O)([N-]S(=O)(=O)C(F)(F)F)C(F)(F)F, the activity coefficient is, setting by setting: (303.15 K) 1.3 and 1.31; (313.15 K) 1.26 and 1.28; (323.15 K) 1.25 ± 0.04.
`C1CCCC1` [cyclopentane] + CCCCCCCC[N+](C)(CCCCCCCC)CCCCCCCC.O=S(=O)([N-]S(=O)(=O)C(F)(F)F)C(F)(F)F: the activity coefficient (303.15 K) stood at 0.71 ± 0.03; the activity coefficient (313.15 K) is 0.69 and 0.7; the activity coefficient (323.15 K) is 0.7 and 0.69.
On to `CC(C)=O` [acetone] + CCCCCCCC[N+](C)(CCCCCCCC)CCCCCCCC.O=S(=O)([N-]S(=O)(=O)C(F)(F)F)C(F)(F)F, for which the activity coefficient (303.15 K) came to 0.35 ± 0.04; the activity coefficient (313.15 K) was 0.4 and 0.38; the activity coefficient (323.15 K) was 0.42 and 0.44.
Consider `C=CCCCCC` [1-heptene] + CCCCCCCC[N+](C)(CCCCCCCC)CCCCCCCC.O=S(=O)([N-]S(=O)(=O)C(F)(F)F)C(F)(F)F, for which the activity coefficient by setting is: (303.15 K) 1.46 and 1.44; (313.15 K) 1.45 and 1.43; (323.15 K) 1.44 and 1.42.
As to `C#CCCCCCC` [1-octyne] + CCCCCCCC[N+](C)(CCCCCCCC)CCCCCCCC.O=S(=O)([N-]S(=O)(=O)C(F)(F)F)C(F)(F)F, the activity coefficient runs as follows: (303.15 K) 1.07 and 1.05; (313.15 K) 1.08 and 1.06; (323.15 K) 1.1 and 1.08.
`C=CCCCC` [hex-1-ene] + CCCCCCCC[N+](C)(CCCCCCCC)CCCCCCCC.O=S(=O)([N-]S(=O)(=O)C(F)(F)F)C(F)(F)F: the activity coefficient runs as follows: (303.15 K) 0.89 and 0.88; (313.15 K) 0.85 ± 0.03; (323.15 K) 0.88 and 0.87.
Take `CO` [methanol] + CCCCCCCC[N+](C)(CCCCCCCC)CCCCCCCC.O=S(=O)([N-]S(=O)(=O)C(F)(F)F)C(F)(F)F: the activity coefficient is, setting by setting: (303.15 K) 0.88 and 0.89; (313.15 K) 0.81 and 0.82; (323.15 K) 0.79 and 0.81.
Regarding `C#CCCCCC` [1-heptyne] + CCCCCCCC[N+](C)(CCCCCCCC)CCCCCCCC.O=S(=O)([N-]S(=O)(=O)C(F)(F)F)C(F)(F)F, the activity coefficient was 0.89 ± 0.1 (303.15 K); 0.89 and 0.91 (313.15 K); 0.9 and 0.92 (323.15 K).

These data come from the NIST ThermoML archive (doi:10.1016/j.jct.2009.08.012).
